In patent US20230174584A1, “Antibiotic Compounds” (priority 2019, published 2023):
Where two headings read alike, the source gives them in different places.

What was measured:
[1] = Cytotoxicity assay for HepG2 (MTT); assay type: cell-based, human; conditions: human
Method: (§1) Mammalian cytotoxicity assays were performed by Cyprotex. Cytotoxicity was assessed using the MTT assay. Briefly, HepG2 human hepatocellular carcinoma cells (100 μL per well) were plated on black-walled clear-bottomed polystyrene 96-well tissue culture treated plates 24 h prior to dosing the cells. The cells were dosed with test compound (dissolved in 0.5% DMSO in growth media containing 10% FBS) at a range of concentrations (0.04 μM, 0.1 μM, 0.4 μM, 1 μM, 4 μM, 10 μM, 40 μM, 100 μM). After 23 h period the cells were loaded with the MTT dye (yellow; 3-(4,5-dimethyl-2-thiazolyl)-2,5-diphenyl-2H-tetrazolium bromide) followed by an additional 1 h incubation (resulting in a total incubation time with antibiotics of 24 h). Subsequently, the plates are dried and solubilized in DMSO followed by scanning at 570 nm using a microplate absorbance reader. Cell viability is determined by conversion of the soluble MTT to insoluble formazan (purple) by mitochondrial […] in live cells. Production of formazan indicates […]. Carbonyl cyanide 3-chlorophenylhydrazone is used as no response control and chlorpromazine is used as control known to be cytotoxic. Solvent control wells (0.5% DMSO in growth media containing 10% FBS) are then used to determine significance limits for wells that have a greater than expected fraction of low or high responders. The minimum effective concentration is determined from the lowest concentration whose mean value exceeds the significance level, provided either a clear dose-response relationship is observed, or at least two consecutive concentration points are above the significance level. AC50 values are also determined provided a clear dose-response relationship is observed. Experiment was performed in triplicates.

[2] = test system: HepG2 human hepatocellular carcinoma cells; experiment: Cytotoxicity assay for HepG2 (MTT); assay type: cell-based
Method: as §1

MRSA USA 300 = experiment: Resistance development serial passage assay; assay type: cell-based, Staphylococcus aureus; conditions: MRSA serially passaged over 30 days in sub-lethal antibiotic concentrations
Method: (§2) FIG. 3 illustrates the results obtained when selected compounds were assessed using a resistance development serial passage assay. A) Daily fold-increase of MIC compared to initial MIC against MRSA USA 300 grown in sub-lethal concentrations of daptomycin, compound 5 or compound 16 over 30 days. B). Daily fold-increase of MIC compared to initial MIC against VRE E155 grown in sub-lethal concentrations of daptomycin, compound 5 or compound 16 over 30 days.
(§3) From glycerol stocks, bacterial strains were cultured on blood agar plates and incubated overnight at 37° C. A single colony was grown to exponential phase (OD600=0.5) in TSB+0.002% p80 and diluted 1:100 in fresh media. In polypropylene 96-well microtiter plates, antibiotics were added in biological triplicates and serial diluted 2-fold by transfer and mixing from one well to the next to achieve a final volume of 50 μL per well. An equal volume of bacterial suspension was added to the wells and plates were incubated overnight at 37° C. […] This procedure was repeated for 30 days and the MIC was recorded daily. Cultures containing daptomycin were supplemented with 50 mg L^−1 CaCl2 and 10 mg L^−1 MgSO4. The experiment was performed in biological replicates and for each replicate the MIC was determined from the median of a minimum of triplicates.

VRE E155 = experiment: Resistance development serial passage assay; assay type: cell-based, Enterococcus faecium; conditions: VanA-type VRE strain serially passaged over 30 days in sub-lethal antibiotic concentrations
Method: as §2, §3

SMILES: CN(C)CCCN1c2ccccc2Sc2ccc(Cl)cc21 [Chropromazine]
- AC50 at 24 h [1]: 19 µM
- Direction of response (↑↓) [2]: ↓
- MEC ([2]; human, 24 h): 12.4 µM

SMILES: N#CC(C#N)=NNc1cccc(Cl)c1 [carbonyl cyanide 3-chlorophenylhydrazone]
- AC50 at 24 h ([1]; HepG2 human hepatocellular carcinoma cells, MTT, HepG2, 24 h, 10% FBS, n = 3, read-out: AC50): > 100 µM

SMILES: CCCCCCCCCC(=O)N[C@@H](Cc1c[nH]c2ccccc12)C(=O)N[C@H](CC(N)=O)C(=O)N[C@@H](CC(=O)O)C(=O)N[C@@H]1C(=O)NCC(=O)N[C@@H](CCCN)C(=O)N[C@@H](CC(=O)O)C(=O)N[C@H](C)C(=O)N[C@@H](CC(=O)O)C(=O)NCC(=O)N[C@H](CO)C(=O)N[C@@H]([C@H](C)CC(=O)O)C(=O)N[C@@H](CC(=O)c2ccccc2N)C(=O)O[C@@H]1C [daptomycin, reference compound]
- resistance induction, fold-increase of MIC compared to initial MIC (MRSA USA 300): 16 fold
- resistance induction, fold-increase of MIC compared to initial MIC (VRE E155): 128 fold
